Results taken from paper PMC6934184, “Selective DNA-PKcs inhibition extends the therapeutic index of localized radiotherapy and chemotherapy” (The Journal of Clinical Investigation, 2019).

Target: T1, SGKL (SGK3) (Homo sapiens, UniProt Q96BR1)
T1 construct: purchased Thermo Fisher Scientific (Life Technologies) SelectScreen
Experiment: SelectScreen Z'LYTE
Type: biochemical
In short: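 NU5455 was profiled across the SelectScreen Broad panel of kinase activity and binding assays. Z'LYTE reactions such as CSF1R ran at apparent Km ATP, while the Adapta CAMK1 assay used ATP listed as 10. Values are given as percent.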

T1 sequence (Q96BR1 whole entry): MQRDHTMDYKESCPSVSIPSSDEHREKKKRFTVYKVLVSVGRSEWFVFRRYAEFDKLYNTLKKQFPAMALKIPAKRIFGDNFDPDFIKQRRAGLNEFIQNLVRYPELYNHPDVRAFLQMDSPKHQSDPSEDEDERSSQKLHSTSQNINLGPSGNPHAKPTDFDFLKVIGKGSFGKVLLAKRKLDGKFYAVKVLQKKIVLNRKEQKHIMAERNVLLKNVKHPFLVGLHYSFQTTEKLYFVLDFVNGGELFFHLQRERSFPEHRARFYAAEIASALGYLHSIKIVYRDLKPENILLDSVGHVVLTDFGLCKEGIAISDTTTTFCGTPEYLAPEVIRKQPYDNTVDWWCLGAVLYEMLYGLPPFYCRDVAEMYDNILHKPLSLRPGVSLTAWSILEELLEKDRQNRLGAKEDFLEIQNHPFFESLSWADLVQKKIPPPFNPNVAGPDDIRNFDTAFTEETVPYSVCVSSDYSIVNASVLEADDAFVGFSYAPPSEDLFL

CN(C(=O)CN1CCOCC1)c1ccc2sc3c(-c4cccc5c(=O)cc(N6CC7CCC(C6)O7)oc45)cccc3c2c1 [NU5455]
inhibition at 1 µM: -4.6%
